Test results published in patent publication US8058270B2, “Dihydropteridinones for the treatment of cancer diseases” (Boehringer Ingelheim International GmbH, priority 2004, dated 2011).

What was measured:
Experiment in all cases: Alamar Blue cytotoxicity assay
Type in all cases: cell-based
Raji = details: Homo sapiens; Raji (Lymphoma), 72 h
Text: (§1) Alamar Blue™ Cytotoxicity Assays
(§2) The Alamar Blue™ assay is designed to measure quantitatively the proliferation of cells by incorporating a fluorometric/colorimetric growth indicator based on the detection of metabolic activity.
(§3) Cell culture: The various human tumor cell lines can be purchased from American Type Culture Collection (ATCC) or the German Collection of Microorganisms and Cell Cultures (DSMZ) and cultivated in 75 to 175 cm^2 tissue culture flasks in the medium indicated by the supplier. The cells are maintained at 37° C. and 5% CO2 in a humidified atmosphere, with an appropriate split ratio. Logarithmically growing cells are used for the assays.
(§4) Assay conditions: On day one of the experiment 1000-4000 cells (in 100 μl medium) are seeded into each well of a sterile 96-well plate. The number of cells used is dependent on the growth rate and size of the cells. Eight wells on each plate are left free to accommodate for controls (4 wells for medium plus reduced AlamarBlue™, and 4 wells for medium plus oxidized AlamarBlue™). The plates are kept in the incubator overnight. On day two of the experiment serial dilutions of the inhibitor are prepared in medium containing 0.1% DMSO. Typical concentrations used are 10, 3, 1, 0.3, 0.1, 0.03, 0.01, 0.003 and 0.001 μM. 100 μl of the dilution (2× concentrate) is added to each well to yield a final volume of 200 μl per well. As controls plain medium and medium containing 0.1% DMSO are added to the designated wells. All data points are done in quadruplicates. The cells are then incubated for 72 h. After this incubation period 20 μl of AlamarBlue™ is added to each well. As a control, 20 μl of reduced AlamarBlue™ (AlamarBlue™ autoclaved for 30 min) is added to 4 wells without cells, and 20 μl of AlamarBlue™ is added to the remaining 4 wells without cells. After 4-5 h of incubation, the plates are measured in a fluorescence spectrophotometer (excitation 530 nm, emission 590 nm, slits 15, integrate time 0.1).
(§5) Data analysis: For calculation the mean value from the quadruplicates is taken and the background is subtracted. The 0.1% DMSO value (the mean obtained from 8 wells with cells in medium with 0.1% DMSO but no compound) is taken as 100% control. The data is fitted by iterative calculations using a sigmoidal curve analysis program (Graph Pad Prism version 3.03) with variable Hill slope.

A549 = details: Homo sapiens; A549 (Lung), 72 h
Text: as §1, §2, §3, §4, §5

NCI-H520 = details: Homo sapiens; NCI-H520 (Lung), 72 h
Text: as §1, §2, §3, §4, §5

HepG2 = details: Homo sapiens; HepG2 (Liver), 72 h
Text: as §1, §2, §3, §4, §5

BRO = details: Homo sapiens; BRO (Melanoma), 72 h
Text: as §1, §2, §3, §4, §5

MES-SA = details: Homo sapiens; MES-SA (Uterus), 72 h
Text: as §1, §2, §3, §4, §5

HL-60 = details: Homo sapiens; HL-60 (Leukemia), 72 h
Text: as §1, §2, §3, §4, §5

HeLa S3 = details: Homo sapiens; HeLa S3 (Cervix), 72 h
Text: as §1, §2, §3, §4, §5

SKOV-3 = details: Homo sapiens, SK-OV-3; SKOV-3 (Ovary), 72 h
Text: as §1, §2, §3, §4, §5

HT29 = details: Homo sapiens, HT-29; HT29 (Colon), 72 h
Text: as §1, §2, §3, §4, §5

BxPC-3 = details: Homo sapiens; BxPC-3 (Pancreas), 72 h
Text: as §1, §2, §3, §4, §5

MDA-MB-435S = details: Homo sapiens; MDA-MB-435S (Breast), 72 h
Text: as §1, §2, §3, §4, §5

FaDu = details: Homo sapiens; FaDu (Head and Neck), 72 h
Text: as §1, §2, §3, §4, §5

GRANTA-519 = details: Homo sapiens; GRANTA-519 (Lymphoma), 72 h
Text: as §1, §2, §3, §4, §5

MCF7 = details: Homo sapiens; MCF7 (Breast), 72 h
Text: as §1, §2, §3, §4, §5

NCI-H460 = details: Homo sapiens; NCI-H460 (Lung), 72 h
Text: as §1, §2, §3, §4, §5

Colo 205 = details: Homo sapiens; Colo 205 (Colon), 72 h
Text: as §1, §2, §3, §4, §5

DU145 = details: Homo sapiens, DU-145; DU145 (Prostate), 72 h
Text: as §1, §2, §3, §4, §5

H4 = details: Homo sapiens; H4 (Brain), 72 h
Text: as §1, §2, §3, §4, §5

NCI-N87 = details: Homo sapiens; NCI-N87 (Stomach), 72 h
Text: as §1, §2, §3, §4, §5

THP-1 = details: Homo sapiens; THP-1 (Leukemia), 72 h
Text: as §1, §2, §3, §4, §5

Saos-2 = details: Homo sapiens; Saos-2 (Bone), 72 h
Text: as §1, §2, §3, §4, §5

HCT116 = details: Homo sapiens, HCT-116; HCT116 (Colon), 72 h
Text: as §1, §2, §3, §4, §5

PC-3 = details: Homo sapiens; PC-3 (Prostate), 72 h
Text: as §1, §2, §3, §4, §5

A431 = details: Homo sapiens, A-431; A431 (Vulva), 72 h
Text: as §1, §2, §3, §4, §5

Mia CaPa-2 = details: Homo sapiens; Mia CaPa-2 (Pancreas), 72 h
Text: as §1, §2, §3, §4, §5

SK-UT-1B = details: Homo sapiens, Skut1B; SK-UT-1B (Uterus), 72 h
Text: as §1, §2, §3, §4, §5

Compound `CC[C@@H]1C(=O)N(C)c2cnc(Nc3ccc(C(=O)NC4CCN(C)CC4)cc3OC)nc2N1C1CCCC1` [4-[[(7R)-8-cyclopentyl-7-ethyl-5,6,7,8-tetrahydro-5-methyl-6-oxo-2-pteridinyl]amino]-3-methoxy-N-(1-methyl-4-piperidinyl)-benzamide] has an EC50 (Raji) of 14 nM, an EC50 (A549) of 6 nM and an EC50 (NCI-H520) of 10 nM. For the same compound, the EC50 (HepG2) was 10 nM, the EC50 (BRO) was 4 nM and the EC50 (MES-SA) was 10 nM. It also gave an EC50 (HL-60) of 14 nM, an EC50 (HeLa S3) of 12 nM and an EC50 (SKOV-3) of 4 nM. For the same compound, the EC50 (HT29) was 4 nM, the EC50 (BxPC-3) was 25 nM and the EC50 (MDA-MB-435S) was 17 nM. It also gave an EC50 (FaDu) of 6 nM, an EC50 (GRANTA-519) of 5 nM and an EC50 (MCF7) of 9 nM. The EC50 (NCI-H460) was 14 nM, the EC50 (Colo 205) was 9 nM and the EC50 (DU145) was 6 nM. The EC50 (H4) was 22 nM, the EC50 (NCI-N87) was 14 nM and the EC50 (THP-1) was 9 nM. It also gave an EC50 (Saos-2) of 8 nM, an EC50 (HCT116) of 9 nM and an EC50 (PC-3) of 7 nM. The EC50 (A431) was 2 nM, the EC50 (Mia CaPa-2) was 7 nM and the EC50 (SK-UT-1B) was 8 nM.
